Conditions: 101.33 kPa, Liquid; for viscosity: Concentric cylinders viscometry; for mass density: Vibrating tube method; for electrical conductivity: impedance analyzer

CCCC[P+](CCCC)(CCCC)CCCC.O=C([O-])[C@@H]1CCCN1 [tetrabutylphosphonium L-prolinate]
Conditions	electrical conductivity [S/m]	mass density [kg/m3]	viscosity [mPa·s]
298.15 K	0.00727	971.1	1025
303.15 K	0.0105	968.2	692.8
313.15 K	0.0201	962.38	343.6
323.15 K	0.0354	956.46	186.1
333.15 K	0.0584	950.54	108.7
343.15 K	0.0907	944.63	67.74
353.15 K	0.134	938.75	44.5
363.15 K	–	932.9	30.61

From the NIST ThermoML archive (doi:10.1016/j.fluid.2016.02.013)
